Test results reported in paper PMC4666645 (PLoS Pathogens, 2015).
Where a name gives a salt, the structure may show the parent alone. Read-outs that look alike come from different tables or passages of the source.

Legend:
Peq-26/27 receptor = Peq-26/27 receptor (Parascaris equorum, UniProt A0A0U2ES47+A0A0U2ES58); experiment: cell-based
Procedure: In order to determine if ACR-26 and ACR-27 subunits from other parasitic nematodes species could also form functional receptors when expressed in Xenopus oocyte, Peq-acr-26 and Peq-acr-27 cRNAs from the distantly related P. equorum (Clade III) were co-injected in combination with Hco-ric-3.1, Hco-unc-74 and Hco-unc-50 cRNAs. Four days after injection, we observed robust expression of a functional AChR responding to 100 μM ACh (Fig 6B). […] This novel heteropentameric AChR was named Peq-26/27.
(§1) H. contortus and P. equorum acr-26 and acr-27 cDNAs were PCR-amplified using primers containing a restriction site in order to be sub-cloned into the expression vector pTB207 that is suitable for in vitro transcription. Primers are listed in S3 Table. The resulting plasmids were linearized with the NheI restriction enzyme (Fermantas) and used as templates for cRNA synthesis using the T7 mMessage mMachine kit (Ambion). Xenopus laevis ovaries were obtained from the University of Rennes, France (CRB Xenope) and defolliculated using 2 mg/ml collagenase type II (Gibco) in the incubation solution containing: 100 mM NaCl, 2 mM KCl, 1.8 mM CaCl2.2H2O, 1 mM MgCl2.6H2O, 5 mM HEPES, 2.5 mM C3H3NaO3, pH 7.5, supplemented with penicillin 100 U/mL and streptomycin 100 μg/mL). The oocytes were injected in the animal pole with a total volume of 36 nL of cRNA mix containing 50 ng/μL of each cRNA in RNase-free water using the Drummond nanoject II microinjector. Microinjected oocytes were kept at 20°C in incubation medium for 4 days to allow the receptors expression. Two-electrode voltage-clamp recordings were carried out using an Oocyte Clamp OC-725C amplifier (Warner instrument) in oocytes being voltage-clamped at -60mV. All agonist preparations were prepared with recording buffer (100 mM NaCl, 2.5 mM KCl, 1 mM CaCl2.2H2O, 5 mM HEPES, pH 7.3). Currents were recorded and analyzed using the pCLAMP 10.4 package (Molecular Devices).

Hco-26/27 receptor = Hco-26/27 receptor (Haemonchus contortus, UniProt A9XX30+S4VAP0); experiment: cell-based
Chain of Hco-26/27 receptor (A9XX30 entry or part of it): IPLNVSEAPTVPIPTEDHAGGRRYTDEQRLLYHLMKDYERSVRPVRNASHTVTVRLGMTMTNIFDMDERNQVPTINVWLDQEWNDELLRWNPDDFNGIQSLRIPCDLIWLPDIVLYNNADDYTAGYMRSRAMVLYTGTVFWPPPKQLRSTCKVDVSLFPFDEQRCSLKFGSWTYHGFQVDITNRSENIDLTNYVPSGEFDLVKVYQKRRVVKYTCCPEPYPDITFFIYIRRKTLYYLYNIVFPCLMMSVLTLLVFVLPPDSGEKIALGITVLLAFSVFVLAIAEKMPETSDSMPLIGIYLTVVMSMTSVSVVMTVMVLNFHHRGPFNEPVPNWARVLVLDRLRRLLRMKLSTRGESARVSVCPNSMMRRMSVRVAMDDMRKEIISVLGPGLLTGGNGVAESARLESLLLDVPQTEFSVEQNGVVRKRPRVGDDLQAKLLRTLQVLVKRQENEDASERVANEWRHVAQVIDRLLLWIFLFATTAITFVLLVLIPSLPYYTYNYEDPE
Chain of Hco-26/27 receptor (S4VAP0 entry or part of it): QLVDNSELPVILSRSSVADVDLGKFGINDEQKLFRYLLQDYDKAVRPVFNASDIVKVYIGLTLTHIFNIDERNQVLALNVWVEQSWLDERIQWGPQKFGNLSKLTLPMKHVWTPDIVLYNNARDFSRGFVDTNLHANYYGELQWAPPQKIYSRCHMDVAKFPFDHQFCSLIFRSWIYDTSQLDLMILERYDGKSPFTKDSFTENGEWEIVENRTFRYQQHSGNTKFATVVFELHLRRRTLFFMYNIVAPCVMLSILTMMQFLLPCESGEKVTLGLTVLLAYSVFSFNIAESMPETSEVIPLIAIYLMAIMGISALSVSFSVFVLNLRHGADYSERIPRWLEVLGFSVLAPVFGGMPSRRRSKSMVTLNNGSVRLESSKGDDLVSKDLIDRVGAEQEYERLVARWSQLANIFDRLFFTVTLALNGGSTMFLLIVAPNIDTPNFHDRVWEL
Text: In order to investigate if the overlapping expression contributed to functional receptors, we co-expressed Hco-ACR-26 and Hco-ACR-27 in Xenopus laevis oocytes. We have previously reported that the functional expression of nematode muscle AChRs in Xenopus oocytes requires the addition of ancillary proteins. Therefore, cRNAs encoding the subunits Hco-ACR-26 and Hco-ACR-27, in combination with three ancillary proteins (Hco-ric-3.1, Hco-unc-74 and Hco-unc-50) were co-injected into Xenopus oocytes. […] Subsequently, different cRNA combinations were injected into Xenopus oocytes in order to determine the minimal subunit combination leading to the expression of a functional receptor and verify the ancillary factor requirement.
The subunit stoichiometry has been previously reported to impact the pharmacological properties of some nematode AChRs expressed in Xenopus oocytes.
as §1

[1] = 100 μM agonist, normalized to 100 μM ACh current, equal subunit ratio
[2] = read-out: Relative maximal current (Imax) normalized to 100 μM acetylcholine, cRNA ratio 1:1 26/27, 100 μM agonist

Chain of Peq-26/27 receptor (A0A0U2ES58 entry or part of it): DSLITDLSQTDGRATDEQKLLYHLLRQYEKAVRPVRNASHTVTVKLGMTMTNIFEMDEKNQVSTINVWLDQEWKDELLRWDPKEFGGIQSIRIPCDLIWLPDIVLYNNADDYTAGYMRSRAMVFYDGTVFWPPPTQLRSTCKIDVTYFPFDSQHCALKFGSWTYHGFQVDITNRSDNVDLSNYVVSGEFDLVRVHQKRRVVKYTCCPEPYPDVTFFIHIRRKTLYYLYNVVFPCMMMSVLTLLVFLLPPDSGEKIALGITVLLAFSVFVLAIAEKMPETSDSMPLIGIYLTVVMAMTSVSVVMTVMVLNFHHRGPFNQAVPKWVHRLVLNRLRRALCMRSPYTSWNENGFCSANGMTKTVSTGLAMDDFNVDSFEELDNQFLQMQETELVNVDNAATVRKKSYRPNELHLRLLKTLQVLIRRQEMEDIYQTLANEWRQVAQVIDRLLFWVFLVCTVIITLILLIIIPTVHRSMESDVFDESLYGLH
Chain of Peq-26/27 receptor (A0A0U2ES47 entry or part of it): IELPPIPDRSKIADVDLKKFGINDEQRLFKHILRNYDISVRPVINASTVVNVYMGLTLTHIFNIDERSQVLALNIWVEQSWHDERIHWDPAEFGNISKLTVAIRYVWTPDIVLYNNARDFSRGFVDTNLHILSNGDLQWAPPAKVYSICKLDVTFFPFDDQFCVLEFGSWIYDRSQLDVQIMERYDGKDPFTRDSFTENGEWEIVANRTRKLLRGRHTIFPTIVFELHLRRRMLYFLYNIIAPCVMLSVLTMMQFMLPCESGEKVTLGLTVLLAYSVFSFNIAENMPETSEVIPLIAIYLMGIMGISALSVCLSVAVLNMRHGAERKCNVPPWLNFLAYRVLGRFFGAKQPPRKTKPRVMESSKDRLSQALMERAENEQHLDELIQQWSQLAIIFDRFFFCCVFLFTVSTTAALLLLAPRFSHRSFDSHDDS

CN1CCC[C@H]1c1cccnc1 [Nic, (-)-nicotine hydrogen tartrate]
Current elicited, % of ACh response (Peq-26/27 receptor; 100 μM agonist, normalized to 100 μM ACh current): insensitive
Current elicited, % of ACh response (Hco-26/27 receptor): insensitive

CC(=O)OCC[N+](C)(C)C [ACh, Acetylcholine chloride]
EC50 (Peq-26/27 receptor): 34.9 ± 1.1 µM
EC50 (Hco-26/27 receptor): 80.1 ± 1.1 µM
Emax at 100 µM (Hco-26/27 receptor; cRNA ratio 1:1 26/27, 100 μM agonist, read-out: Relative maximal current (Imax) normalized to 100 μM acetylcholine): 100%
Emax at 100 µM (Hco-26/27 receptor; cRNA ratio 1:5 26/27, 100 μM agonist, read-out: Relative maximal current (Imax) normalized to 100 μM acetylcholine): 100%
Emax at 100 µM (Hco-26/27 receptor; cRNA ratio 5:1 26/27, 100 μM agonist, read-out: Relative maximal current (Imax) normalized to 100 μM acetylcholine): 100%

C[N+](C)(CCOc1ccccc1)Cc1ccccc1 [Beph, bephenium]
Current elicited, % of ACh response (Hco-26/27 receptor; [1]): insensitive
Emax at 100 µM (Hco-26/27 receptor; [2]): 3.21 ± 1.61%
Emax at 100 µM (Hco-26/27 receptor; read-out: Relative maximal current (Imax) normalized to 100 μM acetylcholine, cRNA ratio 1:5 26/27, 100 μM agonist): 2.26 ± 2.26%

CN1CCCN=C1/C=C/c1cccc(O)c1 [Oxa, oxantel]
Current elicited, % of ACh response (Hco-26/27 receptor; [1]): insensitive
Emax at 100 µM (Hco-26/27 receptor; [2]): 0.95 ± 0.95%
